The source of these data is US7671038B1, “Method of therapeautic treatments including human immunodeficiency virus (HIV) disease and other conditions in a human host by administering adenine nucleotides” (priority 1993, dated 2010).

The nature of series [1]: Phase I continuous intravenous ATP infusions in advanced cancer patients: total blood (red blood cell) ATP levels and adverse effects. Type of series: in vivo, human. As to conditions: after 48 hours of infusion. The text has this:
In advanced cancer patients with cachexia and malnutrition, the basal blood ATP levels were lower than normal but could be elevated to well above a normal level after ATP infusions.

The conditions of series [2]: cited from earlier work.
In series [3] the test system is tumor-bearing murine models. To be noted: cited from earlier work.
The test system of another series is TNF-α production. To be noted: cited from earlier work; for TNF-α biosynthesis inhibition: conclusion of Parmely et al.
Another series concerns endotoxin lethality. To be noted: mice; cited from earlier work.
Another series relates to T-cells. To be noted: HIV seropositive individuals (without AIDS); cited from earlier work.
Where [4] appears, read: activated mouse peritoneal macrophages.

“Also recorded” adds a separate entry of the source.

As for `Nc1ncnc2c1ncn2[C@@H]1O[C@H](COP(=O)(O)OP(=O)(O)OP(=O)(O)O)[C@@H](O)[C@H]1O` [ATP, adenosine 5′triphosphate], the “change of total blood levels of ATP (red blood cell ATP pools)” value in series [1] (most patients) is given as “doubling”. Moreover, in series [1] (basal levels 0.9-1 mM), the “total blood ATP levels” value was 1.6 to 2 mM. Moreover, the “change of blood (red blood cell) ATP levels” value in series [2] (intravenous infusion 50 μg/kg min, after 24 hours, advanced cancer patients) was “doubling”. Moreover, the “decline of elevated blood ATP levels after termination of the ATP infusions” value in series [2] (return of total blood ATP to basal levels) was “declined over a period of several days; also recorded: declined within several days”. For the same compound, the host weight loss result in series [3] (cachectic tumor model, murine hosts) is recorded as “markedly inhibit”. For the same compound, the tumor growth entry in series [3] (elevated ATP levels, tumor-bearing murine models) was “inhibit”.
Regarding `Nc1ncnc2c1ncn2[C@H]1CC[C@@H](O)C1` [MDL201112, reference compound], in the series with TNF-α production, the TNF-α biosynthesis inhibition entry is on record as “potent inhibitors”.
For the compound `Nc1ncnc2c1ncn2[C@@H]1O[C@H](CO)[C@@H](O)[C@H]1O` [adenosine], in the series with TNF-α production (setting [4]), the “RNA levels for TNF-α” value was “no effect” and the TNF-α production entry was “inhibited”. In addition, the TNF-α biosynthesis inhibition result in the series on TNF-α production is on record as “potent inhibitors”. The “protection against endotoxin lethality” value with endotoxin lethality was “failed to protect”.
As for `C[C@H]1O[C@@H](n2cnc3c(N)ncnc32)C[C@@H]1O` [ddAdo, 2′,5′-dideoxyadenosine], in the series on T-cells, the “cyclic AMP levels” value is recorded as “reduce”; the “proliferative capacity of T-cells to recall antigens and T-cell cytotoxicity” value is on record as “increase”.
